Results from patent US4104285A, “Taurine and glycine derivatives” (Hoffmann-La Roche Inc., priority 1977, dated 1978).

Assays:
bile flow = test: stimulation of bile flow in rats, duodenal infusion; type: in vivo, female albino rats; conditions: 100 mg by duodenal infusion in 4ml emulsion, compared to rats which received only the emulsion
Protocol: The compounds of formula I-A are active in stimulation of bile flow which results in the dissolution of gall stones. This can be seen from the fact that when 100 mg of N-(3α,12α-dihydroxy-5β-24-norcholanoyl)-taurine was administered by duodenal infusion to female albino rats in a 4ml emulsion of sodium taurocholate in […], the flow of bile was increased 15% during the first 8 hours and 30% during the period of 9 to 15 hours after administration compared to the flow in rats which received only the emulsion without the taurine compound. […] This enabled the production of lymph at a constant rate, the infusion of a bile salt and the simultaneous collection of bile.

rat pancreatic lipase = biological target: T1, rat pancreatic lipase (Rattus norvegicus, UniProt P27657); test: inhibition of rat pancreatic lipase activity in vitro; type: biochemical; conditions: [14C]-triolein emulsion, pH 8.6, 20 min. at 37° C
T1 sequence (P27657 17-465): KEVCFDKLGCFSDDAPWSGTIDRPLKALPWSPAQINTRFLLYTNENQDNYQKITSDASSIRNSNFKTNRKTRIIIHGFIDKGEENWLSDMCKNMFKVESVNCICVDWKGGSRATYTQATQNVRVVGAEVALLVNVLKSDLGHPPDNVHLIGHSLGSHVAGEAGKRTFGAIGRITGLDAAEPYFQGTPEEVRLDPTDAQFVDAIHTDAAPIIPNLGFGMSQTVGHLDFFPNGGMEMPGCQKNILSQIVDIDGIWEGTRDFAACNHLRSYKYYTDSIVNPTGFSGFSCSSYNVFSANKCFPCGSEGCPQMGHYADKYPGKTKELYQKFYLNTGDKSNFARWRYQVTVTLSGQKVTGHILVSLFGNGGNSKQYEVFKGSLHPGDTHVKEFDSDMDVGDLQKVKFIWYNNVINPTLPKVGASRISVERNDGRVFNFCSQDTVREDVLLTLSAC
Protocol: Dietary long-chain triglycerides must be hydrolyzed by pancreatic lipase in the duodenum before absorption can occur. […] The capacity of compounds of formula I-C to inhibit rat pancreatic lipase in vitro was investigated by testing the following compounds: The ability of compounds to inhibit rat pancreatic lipase is determined by analyzing the nmoles of free fatty acid [oleic acid] released from [^14 C]-triolein. Compounds of A and B are added to an emulsion consisting of: 200,000 dmp ^14 C-triolein, 7.5 mg triolein, 0.75 mg sodium taurocholate, 15 mg bovine serum albumin and 0.9 ml 0.2 M tris-HCl - 0.15 M NaCl, pH 8.6, per assay. Water and/or pancreatic lipase is added to make an assay volume of 1.0 ml. The emulsion is incubated for 20 min. at 37° C in a shaking water bath. The reaction is stopped by the addition of isopropanol; H2 SO4 (40:1). The lipids are extracted twice with 3 ml volumes of hexane. The liberated fatty acids are extracted with 2 ml of 0.1 N aqueous KOH in 50% methanol. A 1 ml aliquot of the KOH layer is placed in a scintillation vial with 10 ml of 2,5-bis-2-(5-tertiary butyl benzoxazolyl)thiophene. The radioactivity is determined in a scintillation counter. Data are expressed a nmoles free fatty acid [oleic acid] related.

triglyceride absorption = test: effect on triglyceride absorption in vivo, rise in plasma triglycerides after oral load of corn oil; set-up: species or system rats
Protocol: The ability of compound I to inhibit the absorption of dietary triglyceride in rats is determined by analyzing the rise in serum triglycerides after an oral load of corn oil. […] In this procedure blood samples (0.4 ml) were collected from the rat tail 0, 2, 4, 6, 8 and 24 hours after compound administration. Each rat is its own control. Plasma samples were analyzed for triglyceride content by the procedure set forth in Kessler and Lederer, Tehnicon Symposium 1965 Automation in Analytical Chemistry Ed L. Skeggs, published Mediad Inc. New York (1966) pp 341. The data in Table I is expressed as mg% change in plasma triglyceride levels compared to zero time control values at each time interval. This change in plasma triglycerides was determined by calculating the difference between the triglyceride level at each time point compared to zero time contol level.

[1] = system: cholesterol level in the lymph; test: cholesterol level in thoracic duct lymph of rats after oral administration with 4-14C-cholesterol emulsion; type: in vivo, female albino rats (Charles River); conditions: 100mg orally, compared to control (Na-TC)
Protocol: The lowering of the cholesterol levels in mammals by the administration of the compound of formula I-B can be seen from the fact that when 100mg of N-(3α,12α-dihydroxyetiocholanoyl)glycine was administered orally to female albino rats, the cholesterol level in the lymph was decreased after administration by 86% over the first 8 hours and 94% over the next 9 to 24 hr. period after administration as compared to the control. In this procedure, female albino rats (Charles River), weighing 300 ± 10 g were kept on a Purina chow diet ad libitum until the time of operation. […] This preparation enabled the production of lymph at a constant rate, the infusion of a bile salt, and the simultaneous collection of bile. All animals received, after operation, a continuous duodenal infusion of sodium taurocholate (Na-TC) in 0.85% NaCl. One day after operation, the rats were given, by stomach intubation, an emulsion containing about 4% triolein, 20 μ C of 4-^14 C-cholesterol (Specific Activity 61.7 mC/mM, 159 μ C/mg), 2 mg of cholesterol, in addition to protein, carbohydrate, and saline. Both the Na-TC and the cholesterol carrier employed gave a single spot on either thin layer or glass fiber paper chromatograph so no further purification was attempted. […] An aliquot of the lipid extract was placed on a small piece of glass fiber paper and counted. […]

C[C@H](CC(=O)NCCS(=O)(=O)O)[C@H]1CC[C@H]2[C@@H]3CC[C@@H]4C[C@H](O)CC[C@]4(C)[C@H]3C[C@H](O)[C@]12C [Compound A, N-(3α,12α-dihydroxy-5β-24-norcholanoyl)-taurine]
increase in flow of bile (bile flow; during the first 8 hours after administration): 15% | increase in flow of bile (bile flow; period of 9 to 15 hours after administration): 30% | Ki (rat pancreatic lipase): 7 mM

C[C@H](CC(=O)NCC(=O)O)[C@H]1CC[C@H]2[C@@H]3CC[C@@H]4C[C@H](O)CC[C@]4(C)[C@H]3C[C@H](O)[C@]12C [Compound B, N-(3α,12α-dihydroxy-5β-24-norcholanoyl)glycine]
Ki (rat pancreatic lipase): 8 mM

C[C@]12CC[C@@H](O)C[C@H]1CC[C@@H]1[C@@H]2C[C@H](O)[C@]2(C)[C@@H](C(=O)NCC(=O)O)CC[C@@H]12 [N-(3α,12α-dihydroxyetiocholanoyl)glycine]
ability to inhibit absorption of triglyceride (triglyceride absorption; 1.1 m moles/kg orally 15 minutes before oral corn oil, 24 hour fasted rats): inhibit absorption of triglyceride | Change in Plasma Triglyceride Levels, 4 hr (triglyceride absorption; 1.1 m moles/kg orally 15 minutes before oral corn oil, 24 hour fasted rats, 4 hr vs zero time, Control 98 ± 31): 107 ± 17 mg % | Change in Plasma Triglyceride Levels, 6 hr (triglyceride absorption; 1.1 m moles/kg orally 15 minutes before oral corn oil, 24 hour fasted rats, 6 hr vs zero time, Control 161 ± 28): 130 ± 17 mg % | Change in Plasma Triglyceride Levels, 8 hr (triglyceride absorption; 1.1 m moles/kg orally 15 minutes before oral corn oil, 24 hour fasted rats, 8 hr vs zero time, Control 391 ± 58): 167 ± 22 mg % | Change in Plasma Triglyceride Levels, 24 hr (triglyceride absorption; 1.1 m moles/kg orally 15 minutes before oral corn oil, 24 hour fasted rats, 24 hr vs zero time, Control 130 ± 36): 46 ± 5 mg % | Change in Plasma Triglyceride Levels, 2 hr (triglyceride absorption; po): 29 ± 3 mg % | decrease of cholesterol level in the lymph (4-14C-cholesterol, % decrease over the control) ([1]; first 8 hours after administration): 86% | decrease of cholesterol level in the lymph (4-14C-cholesterol, % decrease over the control) ([1]; next 9 to 24 hr. period after administration): 94%
